As a reminder, the MIC is the lowest concentration that inhibits growth of the organism. The low end stands for inhibition by little substance, the high end for a need for much substance.

≈ marks a conversion by molar mass, not a printed value.

Results on seven compounds are retold here after ChEMBL document CHEMBL3352027, “Pharmacologically active metabolites, combination screening and target identification-driven drug repositioning in antituberculosis drug discovery” (2014).

This experiment concerns Mycobacterium tuberculosis. The experiment in a line: Antitubercular activity against drug-resistant Mycobacterium tuberculosis. In kind it is functional.
The compound `CN[C@@H]1[C@H](O)[C@H](NC)[C@H]2O[C@]3(O)[C@H](O[C@@H]2[C@H]1O)O[C@H](C)C[C@H]3NC(=O)Cc1ccccn1` came in with a minimal inhibitory concentration (MIC) of 1.6 µg/mL (≈ 3.54 µM). `CN[C@@H]1[C@H](O)[C@H](NC)[C@H]2O[C@]3(O)[C@H](O[C@@H]2[C@H]1O)O[C@H](C)C[C@H]3NC(=O)Cc1ccccc1`: the MIC is 1.6 µg/mL (≈ 3.54 µM). Then `CN[C@@H]1[C@H](O)[C@H](NC)[C@H]2O[C@]3(O)[C@H](O[C@@H]2[C@H]1O)O[C@H](C)C[C@H]3NC(=O)Cc1ccc(F)cn1`, with 1.6 µg/mL (≈ 3.4 µM). Then `CN[C@@H]1[C@H](O)[C@H](NC)[C@H]2O[C@]3(O)[C@H](O[C@@H]2[C@H]1O)O[C@H](C)C[C@H]3NC(=O)CNC(C)(C)C`, with 1.6 µg/mL (≈ 3.58 µM); and `CN[C@@H]1[C@H](O)[C@H](NC)[C@H]2O[C@]3(O)[C@H](O[C@@H]2[C@H]1O)O[C@H](C)C[C@H]3NC(=O)Cc1ccc(Cl)cn1`, with 1.6 µg/mL (≈ 3.29 µM); and `CN[C@@H]1[C@H](O)[C@H](NC)[C@H]2O[C@]3(O)[C@H](O[C@@H]2[C@H]1O)O[C@H](C)C[C@H]3NC(=O)Cc1cc(Cl)ccn1`, with 1.6 µg/mL (≈ 3.29 µM). Next, `CN[C@@H]1[C@H](O)[C@H](NC)[C@H]2O[C@]3(O)[C@H](O[C@@H]2[C@H]1O)O[C@H](C)C[C@H]3NC(=O)Cc1cscn1`: 1.6 µg/mL (≈ 3.49 µM).
